Measurements: EP2929785A1, “A PLA inhibitor for inhibition of fat absorption” (PAT GmbH, priority 2014, dated 2015)

Key:
iPLA2ß-/- hepatocytes = assay: Fatty acid influx in primary hepatocytes from iPLA2ß-/- mice; type: cell-based; details: UDCA-LPE pretreatment (Fig. 4B)
[1] = test system: retrogradely perfused mouse livers; assay: Single pass [3H]oleate extraction rates in retrogradely perfused mouse livers; type: in vivo, C57BL/6 mice; details: mice pretreated i.p. 23 mg/kg, 1 h
Method: Twelve-week-old female C57BL/6 mice were injected intraperitoneally with 1 ml UDCA-LPE [ChemCon, Freiburg, Germany] (Chamulitrat W. et al. Hepatology. 2009; 50: 143-154) at 23 mg/kg or phosphate-buffered saline (PBS) as a control with 5% Tween 80. […] Retrograde perfusion of oxygenized 100 µM albumin (A4503, Sigma, Munich, Germany) in PBS was performed at 37°C and a flow rate of 4 ml/min, with the perfusate collected from the opened portal vein (Hoffmann MJ et al. Hepatology. 2012; 55: 1369-1378). After equilibration for 5 min, a 1 ml bolus of 200 µM [3H]oleate (Perkin Elmer, Rodgau, Germany) along with 100 µM [methyl-14 C]albumin (Biotrend, Cologne, Germany) or 100 µM [14C]sucrose (Perkin Elmer) was introduced through the stopcock and the perfusion was allowed to continue for 5 min. Outflow samples were collected every 15 s and single pass extraction rates were determined as previously described (Hoffmann MJ et al. Toxicol. Sciences. 1999; 49: 40-47).

[2] = test system: fatty acid uptake complex components; assay: Transcript levels of fatty acid uptake complex components by semi-quantitative RT-PCR in HepG2 cells; type: cell-based, human; details: after 1 h of treatment, UDCA-LPE 50 µM (Fig. 6)
Text: The following forward and reverse primers (Sigma) were used for RT-PCR: iPLA2ß, [NT] (SEQ ID NO: 1) and [NT] (SEQ ID NO: 2); CD36, [NT] (SEQ ID NO: 3) and [NT] (SEQ ID NO: 4); […] (SEQ ID NO: 5) and [NT] (SEQ ID NO: 6); and caveolin-1, [NT] (SEQ ID NO: 7) and reverse [NT] (SEQ ID NO: 8). The primers for FATP4 and ß-actin (internal control) were the same as those previously used as described in […] et al. Am J Physiol Endocrinol Metab 2011; 301, 785-796.

HepG2 cells = assay: Fatty acid ([3H]oleate:albumin) influx in HepG2 cells; type: cell-based, human
p-JNK1 = assay: Cytosolic p-JNK1 levels in HepG2 cells (western blotting); type: cell-based, human
Method: Immunoblotting was performed according to a standard protocol as set out in Sun Q., et al. Biol Med (Maywood). 2012; 237: 178-185. The following primary antibodies to human proteins were used: mouse a-phosphorylated c-Jun N-terminal kinase 1 (p-JNK1) (88.20; Santa Cruz Biotechnology Inc., Heidelberg, Germany) at 1:500; mouse a-CD36 (1.BB.344; Santa Cruz Biotechnology Inc.) at 1:200; rabbit a-iPLA2ß (558-588; Abcam) at 1:500; mouse a-FABPPM (331-430; Abnova, Heidelberg, Germany) at 1:1,000; mouse a-FATP4 (1F4-1B10; Abnova) at 1:500; mouse a-caveolin-1 (C20B; Santa Cruz Biotechnology Inc.) at 1:500; mouse a-flotilin1 (F-3; Santa Cruz Biotechnology Inc.) at 1:500; and mouse a-ß-actin (AC-15; Sigma) at 1:100,000. Anti-mouse or -rabbit HRP (96910 and 107487, respectively; Dianova, Hamburg, Germany) were used at 1:10,000 dilution as secondary antibodies. To estimate the protein concentration a semi-quantitative densitometry was performed as described in Sun Q et al. (loc cit.).

ursodeoxycholatelysophosphatidylethanolamide [UDCA-LPE]
fatty acid influx (iPLA2ß-/- hepatocytes): not | cumulative proportion of the [3H]oleate extracted ([1]; 200 µM [3H]oleate:albumin (2:1)): 0.30 ± 0.03 | inhibition of fatty acid influx ([1]; vs controls): 34% | transcript levels of all fatty acid uptake complex components [2]: < 10 % of initial values | IC50 (HepG2 cells; 1-h treatment with increasing concentrations (Fig. 2A), read-out: inhibition of fatty acid influx (IC50)): 47 µM | time until fatty acid influx reached a minimum (HepG2 cells; UDCA-LPE 100 µM (Fig. 1A)): 60 min | time after withdrawal until original fatty acid influx rate was restored (HepG2 cells; after UDCA-LPE withdrawal (Fig. 1A)): 6 h | Km (HepG2 cells; pretreatment UDCA-LPE 100 µM, 1 h or MAFP 150 µM, 1 h): 0.251 µM | Vmax of [3H]oleate influx (HepG2 cells; pretreatment UDCA-LPE 100 µM, 1 h or MAFP 150 µM, 1 h, control 61.80): 28.43 nmol/mg protein/min | pretreatment time achieving the threshold LPC concentration at which p-JNK1 began to decrease (p-JNK1; > 50 µM UDCA-LPE): > 30 min | pretreatment concentration achieving the threshold LPC concentration at which p-JNK1 began to decrease (p-JNK1; for > 30 min): > 50 µM
